“Also recorded” adds a separate entry of the source. Where no end group is shown, it is not given here.

This note sets out measurements from patent US20100286069A1, “CATIONIC PEPTIDE FOR DELIVERING AN AGENT INTO A CELL” (priority 2007, published 2010).

The nature of data set [1]: Zeta potential measurement (Example 2). It is filed as physicochemical. To be noted: N/P ratio 40; phosphate buffer pH 6.5. The procedure: Particle size and Zeta potential measurement: The particle size and zeta potential of the complexes were measured by dynamic light scattering (Brookhaven Instrument Corp., Holtsville, N.Y., U.S.A.) and using Zetasizer (Malvern Instrument Ltd., Worchestershire, UK), respectively. Briefly, AK27/pDNA and AK32/pDNA complexes were formed in phosphate buffer (pH 6.5) at room temperature at different N/P ratios (i.e. 1, 10, 20, 30 and 40). All the particle size measurements were performed with a light source of 677 nm wavelength and 15° constant angle. The particle size measurement was repeated for 5 runs for each sample, and the data was reported as the effective mean diameter. The zeta potential measurement was repeated for 3 runs per samples, and the data was calculated automatically using the software from the electrophoretic mobility based on the Smoluchowski's formula.

Data set [2] is described as follows: Critical micelle concentration (CMC) measurement with pyrene. In kind it is physicochemical. To be noted: PBS (pH 7.4). The procedure: Critical micelle concentration (CMC) measurement: The CMC of the peptide amphiphile was measured using pyrene as the probe fluorescence molecule. A series of peptide solutions was prepared at various concentrations (0.01 to 2000 mg/L) in PBS. When excited at 337 nm wavelength, the electrons in the pyrene molecules absorb energy, and in turn, emit photons at wavelengths between 350-450 nm, as indicated by five emission peaks in the pyrene fluorescence spectrum (30). At the concentration of amphiphile above its CMC, when the amphiphile forms core/shell structured nanoparticles having a hydrophobic core and a hydrophilic shell, the pyrene molecules aggregate and are solubilized into the core giving […] intensity of the third peak in the emission spectrum. Therefore, monitoring the intensity of the third peak of pyrene's emission spectra, usually normalized to the first peak's intensity, provides a means to estimate the transition concentration (i.e. CMC) of the amphiphile aggregation.
The inflection point gives an estimate of CMC of AK27 in PBS (pH 7.4), which was approximately 120 mg/L.

The next data set concerns pDNA. Put plainly: Gel retardation assay (Example 2). To be noted: PBS; N/P 1 to 10. In kind it is binding. Here is the method:
Complex formation of peptide amphiphiles with DNA: Complexes were formed at different N/P ratios by directly mixing equal volume of peptide and plasmid DNA (pDNA) solutions to achieve the intended N/P ratio, which measured the relative molar content of nitrogen atoms (N) in each peptide molecule to that of the phosphate groups (P) in each pDNA molecule, and was calculated based on the standardized 3 μgDNA/nmole DNA rule of thumb as described previously (31). To allow for complete electrostatic interaction between peptide and pDNA molecules, the solution was equilibrated at room temperature for 30 minutes upon mixing before being used for further studies.
Gel retardation assay: Various formulations of AK27/pDNA and AK32/pDNA complexes, ranging from N/P ratios of 1 to 10, were prepared in PBS. Post-equilibration, the complexes were electrophoresed on 1% agarose gel (stained with 4 μL of 0.5 μg/ml ethidium bromide per 50 mL of gel) in 0.5×TBE buffer at 80 V for 60 minutes. The gel was then analysed on a UV illuminator (Chemi Genius, Evolve, Singapore) to show the position of the complexed pDNA relative to that of the non-complexed form.
DNA binding: Gel retardation assays of the two peptide-based amphiphiles were performed to qualitatively study the electrostatic interaction between the peptide and pDNA.

Another data set has as its system HEK293 cell line. Kind of data set: In vitro luciferase gene expression in HEK293 (Example 2). In kind it is cell-based, human. The procedure: (§1) Cell culture: Both HEK293 and HepG2 cell lines were cultured in high glucose DMEM medium supplemented with 10% fetal bovine serum (FBS), 100 μg/mL penicillin, and 100 μg/mL streptomycin at 37° C. in a humidified 5% carbon dioxide incubator. 4T1 cell line was also cultured with the same condition as the other cell lines, but in RPMI 1640 growth medium supplemented with 10 mM HEPES.
(§2) In vitro gene expression: HEK293, HepG2, and 4T1 cells were seeded onto 24-well plates at 80,000, 80,000 and 50,000 cells/well, respectively, using the same growth medium and conditions as described previously. After one day, the cells achieved about 70-80% confluence, at which transfection experiments were performed. Briefly, peptide/pDNA complexes were prepared at N/P 1, 10, 20, 30, 35, 40, 45 and 50, and different pH in either sodium acetate buffer (pH 5) or phosphate buffer (pH 6.5 and 7.4). The transfection pH was firstly optimized using HEK293 cell lines and AK27 peptide. […] The total amount of DNA loaded was kept constant at 2.5 μg/well. Cells were allowed to incubate with serum and antibiotics-supplemented growth medium (500 μL/well), onto which the complex solutions (50 μL/well) were added. After four hours following the incubation with the complexes, the medium was then replaced with the fresh one. […] The relative light units (RLU) were measured using a luminometer (Lumat LB9507, Berthold, Germany). […]

Data set [3] in a line: MTT cytotoxicity assay in three cell lines (Example 2). In kind it is cell-based, human, mouse. To be noted: HEK293, HepG2 and 4T1 cells; blank nanoparticles and pDNA complexes, even at higher N/P ratios. The procedure: as §1
Cytotoxicity assay: The cytotoxicity of AK27, AK32, AK27/pDNA and AK32/pDNA complexes were all measured using the standard MTT assay protocol. Briefly, HEK293, HepG2 and 4T1 cell lines were seeded onto 96-well plates at 10,000 cells/well, 8,000 cells/well, and 6,000 cells/well seeding density, respectively. Post cell-seeding, the cells were incubated for one day before being used for cytotoxicity assay. For cytotoxicity assay with AK27/pDNA, complexes at N/P ratios of 1, 10, 20, 30, 35, 40, 45 and 50 were prepared in phosphate buffer (pH 6.5) as described earlier. […] After homogenizing the solution, 100 μL of the samples was spectrophotometrically read in a microplate reader (Biorad) at 550 nm and 690 nm wavelength. The relative cell viability was measured as ([Abs550]sample−[Abs690]sample)/([Abs550]control−[Abs690]control)×100%.

Data set [4] concerns HEK293, HepG2 and 4T1 cell lines. Put plainly: In vitro luciferase gene expression, three cell lines (Example 2). It is filed as cell-based, human, mouse. To be noted: for luciferase gene expression level compared with PEI at N/P 10: general, three cell lines. Here is the method: as §1
In vitro gene expression: HEK293, HepG2, and 4T1 cells were seeded onto 24-well plates at 80,000, 80,000 and 50,000 cells/well, respectively, using the same growth medium and conditions as described previously. After one day, the cells achieved about 70-80% confluence, at which transfection experiments were performed. Briefly, peptide/pDNA complexes were prepared at N/P 1, 10, 20, 30, 35, 40, 45 and 50, and different pH in either sodium acetate buffer (pH 5) or phosphate buffer (pH 6.5 and 7.4). The transfection pH was firstly optimized using HEK293 cell lines and AK27 peptide. […] The total amount of DNA loaded was kept constant at 2.5 μg/well. Cells were allowed to incubate with serum and antibiotics-supplemented growth medium (500 μL/well), onto which the complex solutions (50 μL/well) were added. After four hours following the incubation with the complexes, the medium was then replaced with the fresh one. After 68 hours, the culture medium was removed, and the cells were washed with 0.5 mL of PBS (pH 7.4). 0.2 mL of reporter lysis buffer (Promega, Madison, Wis.) was then added to each well to lyse the cells. The cell suspension was next subjected to two cycles of freezing and thawing, and was centrifuged at 14,000 rpm for 5 minutes. 20 μL of the supernatant of the cell lysate was mixed with 100 μL of luciferase substrate (Promega). The relative light units (RLU) were measured using a luminometer (Lumat LB9507, Berthold, Germany). The luciferase activity was normalized to protein content using the BCA protein assay (Sigma). In all these experiments, both naked DNA-transfected cells and PEI-transfected cells were used as negative and positive controls, respectively. […]

The test system of a further data set is HepG2 cell line. Put plainly: In vitro luciferase gene expression in HepG2 (Example 2). In kind it is cell-based, human. To be noted: PEI N/P 10, pH 6.5. Here is the method: as §1, §2
A further data set has as its system 4T1 cell line. Put plainly: In vitro luciferase gene expression in 4T1 (Example 2). In kind it is cell-based, mouse. To be noted: PEI N/P 10, pH 6.5. Here is the method: as §1, §2

For “AAAAAAAAAAAAHHHHHKKKKKKKKKK [AK27, (A)12(H)5(K)10]”, the “highest zeta potential of peptide/pDNA complexes” value in data set [1] is “approximately 7.8±1.1 mV”. The CMC entry in data set [2] is “approximately 120 mg/L”. In addition, the “N/P ratio for complete retardation of DNA” value with pDNA was 3. Further, the “optimum complexation pH for transfection” value with HEK293 cell line (pH 5, 6.5 and 7.4 tested) is reported as “around 6.5”. The viability (commonly the share of living cells, or the viability signal relative to a control) at 4 h in data set [3] was > 80%. The “highest luciferase expression level compared with PEI” value in data set [4] (at N/P ratio of 45, PEI N/P 10) was “about one order of magnitude lower”. The “luciferase gene expression level compared with PEI at N/P 10” value in data set [4] is recorded as “an order of magnitude less”.

Regarding “AAAAAAAAAAAAHHHHHKKKKKKKKKKKKKKK [AK32, (A)12(H)5(K)15]”, the “highest zeta potential of peptide/pDNA complexes” value in data set [1] is ~18.2±0.5 mV. Besides, the “N/P ratio for complete retardation of DNA” value in the data set with pDNA turned out to be 2. In addition, the “highest luciferase expression level compared with PEI” value with HepG2 cell line is “comparable to that provided by PEI; also recorded: comparable to that yielded by PEI”; in the data set on 4T1 cell line it was “less than an order of magnitude lower”; in the data set with HEK293 cell line (PEI N/P 10, pH 6.5), “comparable to that provided by PEI; also recorded: comparable to that yielded by PEI”. In data set [3], the viability at 4 h is > 80%. Also, in data set [4], the “luciferase gene expression level compared with PEI at N/P 10” value was “almost comparable”.
